Data on one molecule can be found in patent US6710090B2, “Inhibitory or blocking agents of molecular generating and/or inducing functions” (priority 1994, dated 2004).

SMILES strings stand for the structures.

The assay is described as follows: Comparison of 4,4-dimethyl-2-cyclohexen-1-one with Yoshixol on all parameters. The source says: In addition, higher dosage was needed to be obtained qualitatively an identical effect to the above-mentioned effect of Yoshixol. Then, the concentration of 4,4-dimethyl-2-cyclohexen-1-one was required about 30-100 times dosage of Yoshixol on the biological samples, and about 10-50 times dosage of Yoshixol on lower molecular substance and macromolecular substance of non-living samples.

With `CC1(C)C=CC(=O)CC1` [4,4-dimethyl-2-cyclohexen-1-one], the “control, inhibit and/or block function generated by multi-dimensional structure” value (all parameters demonstrated by Yoshixol) was “similarly to Yoshixol”. Further, the “concentration required for an effect identical to Yoshixol” value (on the biological samples) is given as 30-100 times dosage of Yoshixol.
